Source: patent US20240182859A1, “MEDIUM COMPOSITION FOR CULTURING MUSCLE STEM CELL COMPRISING CURCUMIN LONGA, GLYSIN, OR INSULIN FOR PROLIFERATION OF MUSCLE STEM CELL” (HYUPSUNG UNIVERSITY INDUSTRY-ACADEMIC COOPERATION FOUNDATION, priority 2021, published 2024)

How the values were obtained:
Nanog = assay: qPCR expression level of Nanog (muscle stem cell marker) in cultured muscle stem cells; format: cell-based, bovine
Experimental: (§1) In detail, first, bovine rump meat was treated with trypsin, and then primary-cultured to obtain bovine muscle stem cells. Afterwards, a culture medium supplemented with curcumin and bFGF was prepared by varying the concentration of curcumin (0.1 μm, 1 μm, 5 μm, 8 μm, and 10 8 μm, respectively) in a DMEM basal medium supplemented with 5% FBS and 8 ng/ml of bFGF, and the muscle stem cells were cultured through passage culture twice.
(§2) In detail, first, bovine rump meat was treated with trypsin, and then primary-cultured to obtain bovine muscle stem cells. Afterwards, a culture medium supplemented with curcumin was prepared by varying the concentration of curcumin (0.1 μm, 1 μm, 5 μm, 8 μm, and 10 μm, respectively) in a DMEM basal medium supplemented with 5% FBS, and the muscle stem cells were cultured through passage culture twice.
(§3) In detail, first, bovine rump meat was treated with trypsin, and then primary-cultured to obtain bovine muscle stem cells.
(§4) First, bovine rump meat was treated with trypsin, and then primary-cultured to obtain bovine muscle stem cells.
(§5) In detail, first, bovine rump meat was treated with trypsin, and then primary-cultured to obtain bovine muscle stem cells. Afterwards, a culture medium supplemented with insulin and bFGF was prepared by varying the concentration of insulin (0.1 μm, 1 μm, 5 μm, 8 μm, and 10 8 μm, respectively) in a DMEM basal medium supplemented with 5% FBS and 8 ng/ml of bFGF, and the muscle stem cells were cultured through passage culture twice.
(§6) In detail, first, bovine rump meat was treated with trypsin, and then primary-cultured to obtain bovine muscle stem cells. Afterwards, a culture medium supplemented with insulin was prepared by varying the concentration of insulin (0.1 μm, 1 μm, 5 μm, 8 μm, and 10 μm, respectively) in a DMEM basal medium supplemented with 5% FBS, and the muscle stem cells were cultured through passage culture twice.

Pax7 = assay: qPCR expression level of Pax7 (myoblast marker) in cultured muscle stem cells; format: cell-based, bovine; conditions: for expression of Pax7, concentration dependence: concentration series
Experimental: as §1, §2, §3, §4, §5, §6

bovine muscle stem cells = assay: Proliferation of bovine muscle stem cells in supplemented DMEM culture medium; format: cell-based
Experimental: as §3
In detail, first, bovine rump meat was treated with trypsin, and then primary-cultured to obtain bovine muscle stem cells. […] As a control, a DMEM basal medium supplemented with 5% FBS was used.
In detail, first, bovine rump meat was treated with trypsin, and then primary-cultured to obtain bovine muscle stem cells. Afterwards, the muscle stem cells were cultured in the DMEM basal medium supplemented with 5% FBS and 10 μM of insulin, and the proliferation of the muscle stem cells was measured. As a control, a DMEM basal medium supplemented with 5% FBS was used.

Oct4 = assay: qPCR expression level of Oct4 (muscle stem cell marker) in cultured muscle stem cells; format: cell-based, bovine
Experimental: as §1, §2, §3, §4, §5, §6

[1] = bFGF-free medium with 5% FBS, overall statement
[2] = medium with 5% FBS + 8 ng/ml bFGF, overall statement, passage culture twice
[3] = medium with 5% FBS + 8 ng/ml bFGF
[4] = glycine 1 mM to 50 mM, bFGF-free
[5] = insulin 10 μm or more, with 8 ng/ml bFGF

## COc1cc(/C=C/C(=O)CC(=O)/C=C/c2ccc(O)c(OC)c2)ccc1O [curcumin]
Nanog; [1]
  expression of Nanog: maintained
Nanog; curcumin 0.1 μm and 1 μm, with 8 ng/ml bFGF
  expression of Nanog vs curcumin-free DMSO control: increased by about twice
Nanog; curcumin 5 μm or more, with 8 ng/ml bFGF
  expression of Nanog: significantly decreased
Nanog; curcumin 8 μm, bFGF-free
  expression of Nanog: significantly decreased
Nanog; [2]
  expression of Nanog: increased
Pax7; bFGF-free medium with 5% FBS
  expression of Pax7, concentration dependence: increased in proportion to the concentration of curcumin
Pax7; curcumin 8 μm, bFGF-free
  expression of Pax7: significantly increased
Pax7; [3]
  expression of Pax7, concentration dependence: increased in proportion to the concentration of curcumin
Bovine muscle stem cells; 8 μm curcumin, DMEM + 5% FBS + 8 ng/ml bFGF, cultured for 29 days
  cell proliferation rate increase compared to basal medium: ≥ 1.5 times
Bovine muscle stem cells; 8 μm curcumin, DMEM + 5% FBS, bFGF-free, cultured for 41 days
  cell proliferation rate increase compared to basal medium: ≥ 1.5 times
Oct4; curcumin 0.1 μm to 5 μm, with 8 ng/ml bFGF
  expression of Oct4 vs curcumin-free DMSO control: increased by about twice
Oct4; curcumin 1 μm to 5 μm, bFGF-free
  expression of Oct4 vs curcumin-free DMSO control: increased by at least about twice
Oct4; curcumin 8 μm or more, with 8 ng/ml bFGF
  expression of Oct4: significantly decreased
Oct4; curcumin 8 μm, bFGF-free
  expression of Oct4: significantly decreased
Oct4; [2]
  expression of Oct4: increased

## NCC(=O)O [glycine]
Nanog; [4]
  expression of Nanog vs glycine-free DMSO control: increased by about twice
Nanog; glycine 10 mM to 100 mM, with 8 ng/ml bFGF
  expression of Nanog vs glycine-free DMSO control: increased by about twice
Nanog; glycine 100 mM, bFGF-free
  expression of Nanog: significantly decreased
Nanog; glycine 150 mM or more, with 8 ng/ml bFGF
  expression of Nanog: significantly decreased
Nanog; [2]
  expression of Nanog: increased
Pax7; 10 µM, bFGF-free insulin culture medium
  expression of Pax7 increase vs insulin-free DMSO control: ≥ 6 times
Pax7; bFGF-free medium with 5% FBS
  expression of Pax7, concentration dependence: increased in proportion to the concentration of glycine
Pax7; glycine 100 mM or more, bFGF-free
  expression of Pax7 increase vs glycine-free DMSO control: ≥ 3 times
Pax7; [3]
  expression of Pax7, concentration dependence: increased in proportion to the concentration of glycine
Bovine muscle stem cells; 100 mM glycine, DMEM + 5% FBS + 8 ng/ml bFGF, cultured for 29 days
  cell proliferation rate increase compared to basal medium: ≥ 1.5 times
Bovine muscle stem cells; 100 mM glycine, DMEM + 5% FBS, bFGF-free, cultured for 41 days
  cell proliferation rate increase compared to basal medium: ≥ 4.1 times
Oct4; [4]
  expression of Oct4 vs glycine-free DMSO control: increased by about twice
Oct4; glycine 1 mM to 50 mM, with 8 ng/ml bFGF
  expression of Oct4 increase vs glycine-free DMSO control: about 2.3 times
Oct4; glycine 100 mM or more, with 8 ng/ml bFGF
  expression of Oct4: significantly decreased
Oct4; glycine 100 mM, bFGF-free
  expression of Oct4: significantly decreased
Oct4; [2]
  expression of Oct4: increased

## insulin
Nanog; [1]
  expression of Nanog: maintained
Nanog; [5]
  expression of Nanog: significantly decreased
Nanog; insulin 10 μm, bFGF-free
  expression of Nanog: significantly decreased
Nanog; [2]
  expression of Nanog: increased
Pax7; bFGF-free medium with 5% FBS
  expression of Pax7, concentration dependence: increased in proportion to the concentration of insulin
Pax7; [3]
  expression of Pax7, concentration dependence: increased in proportion to the concentration of insulin
Bovine muscle stem cells; 10 μm insulin, DMEM + 5% FBS + 8 ng/ml bFGF, cultured for 29 days
  cell proliferation rate increase compared to basal medium: ≥ 6 times
Bovine muscle stem cells; 10 μm insulin, DMEM + 5% FBS, bFGF-free, cultured for 41 days
  cell proliferation rate increase compared to basal medium: ≥ 13 times
Oct4; [1]
  expression of Oct4: increased
Oct4; [5]
  expression of Oct4: significantly decreased
Oct4; [2]
  expression of Oct4: increased
